For one assay, the system named is A549. The assay is described as follows: Cytotoxicity against human A549 cells overexpressing GGT assessed as cell growth inhibition measured after 72 hrs by MTS assay. Type of assay: functional.
In the next assay the test system is HCT-116. The assay is described as follows: Cytotoxicity against human HCT-116 cells assessed as cell growth inhibition measured after 72 hrs by MTS assay. Type of assay: functional.
A further assay has as its system NCI-H460. Briefly: Cytotoxicity against human NCI-H460 cells expressing low GGT assessed as cell growth inhibition measured after 72 hrs by MTS assay. In kind it is functional. (Tetrazolium assays rely on reduction of a dye to a coloured formazan, in cell work by metabolically active cells.)
For assay [1], the target named is T1, Kinesin-like protein KIF11 (Homo sapiens, UniProt P52732).
T1 sequence (P52732 whole entry): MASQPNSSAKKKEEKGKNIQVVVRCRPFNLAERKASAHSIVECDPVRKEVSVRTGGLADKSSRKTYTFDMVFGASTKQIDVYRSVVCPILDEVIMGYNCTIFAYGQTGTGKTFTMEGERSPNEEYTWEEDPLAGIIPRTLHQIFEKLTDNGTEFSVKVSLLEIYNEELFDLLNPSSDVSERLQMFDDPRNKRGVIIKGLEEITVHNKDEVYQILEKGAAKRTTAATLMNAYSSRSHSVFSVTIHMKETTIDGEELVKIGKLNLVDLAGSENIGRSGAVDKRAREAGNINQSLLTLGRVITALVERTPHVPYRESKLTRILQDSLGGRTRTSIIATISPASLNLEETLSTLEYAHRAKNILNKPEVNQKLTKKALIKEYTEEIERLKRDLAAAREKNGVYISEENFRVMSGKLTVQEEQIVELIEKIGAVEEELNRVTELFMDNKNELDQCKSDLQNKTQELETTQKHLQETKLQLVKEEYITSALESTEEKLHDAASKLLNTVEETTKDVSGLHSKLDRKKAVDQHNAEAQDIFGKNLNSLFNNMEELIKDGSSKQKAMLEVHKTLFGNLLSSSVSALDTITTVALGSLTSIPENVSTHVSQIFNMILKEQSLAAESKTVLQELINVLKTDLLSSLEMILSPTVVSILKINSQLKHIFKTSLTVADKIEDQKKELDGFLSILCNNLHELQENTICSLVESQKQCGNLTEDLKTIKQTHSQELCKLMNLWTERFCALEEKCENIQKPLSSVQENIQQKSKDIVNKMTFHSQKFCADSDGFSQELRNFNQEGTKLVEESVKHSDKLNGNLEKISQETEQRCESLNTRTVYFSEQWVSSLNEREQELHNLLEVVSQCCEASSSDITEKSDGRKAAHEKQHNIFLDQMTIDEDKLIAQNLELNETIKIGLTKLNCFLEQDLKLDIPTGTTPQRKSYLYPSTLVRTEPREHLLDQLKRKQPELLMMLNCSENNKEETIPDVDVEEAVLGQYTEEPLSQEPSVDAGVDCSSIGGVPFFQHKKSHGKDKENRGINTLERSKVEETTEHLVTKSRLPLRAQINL
The assay is described as follows: Inhibition C-terminal His-tagged KSP motor domain(1 to 369 residues) (unknown origin) expressed in bacteria assessed as inhibition of microtubule-stimulated ATPase activity preincubated for 30 mins followed by addition of ATP and measured after 15 mins by luciferase-derived luminiscence assay.

Data on eight compounds can be found in ChEMBL document CHEMBL4732246, “Design, synthesis, and evaluation of a novel prodrug, a S-trityl--cysteine derivative targeting kinesin spindle protein” (Eur J Med Chem, 2021).

Broadly, the GI50 is the concentration that inhibits growth by half. As for `N[C@@H](CSC1(c2ccc(C(F)(F)F)cc2)c2ccccc2CCc2ccccc21)C(=O)O`, the values for the GI50 in the assay on A549, in the assay with HCT-116 and with NCI-H460 were 33 nM, 33 nM and 15 nM, respectively.
One may read the IC50 as the point on the concentration scale where inhibition reaches its midpoint. For `N[C@@H](CSC1(c2ccc(C(F)(F)F)cc2)c2ccccc2CCc2ccccc21)C(=O)NCc1ccccc1`, in the assay on HCT-116, the GI50 turned out to be 282 nM. The IC50 in assay [1] is 358 nM.
The matching figures for `NCCOCCOCCNC(=O)C(N)CSC1(c2ccc(C(F)(F)F)cc2)c2ccccc2CCc2ccccc21` (stereo not given): 63 nM and 42 nM.
With `CN(C)CCNC(=O)[C@@H](N)CSC1(c2ccc(C(F)(F)F)cc2)c2ccccc2CCc2ccccc21`, the 50% growth inhibitory concentration (GI50) in the assay with HCT-116 was determined as 115 nM. Further, the IC50 in assay [1] was 56 nM.
The matching figures for `N[C@@H](CSC1(c2ccc(C(F)(F)F)cc2)c2ccccc2CCc2ccccc21)C(=O)NCCN1CCCCC1`: 191 nM and 146 nM.
As for `CC(C)(C)OC(=O)N[C@@H](CSC1(c2ccc(C(F)(F)F)cc2)c2ccccc2CCc2ccccc21)C(=O)O`, the GI50 in the assay on HCT-116 was more than 1000 nM.
With `CC(=O)N[C@@H](CSC1(c2ccc(C(F)(F)F)cc2)c2ccccc2CCc2ccccc21)C(=O)O`, the GI50 in the assay on HCT-116 was more than 1000 nM.
Take `N[C@@H](CSC1(c2ccc(C(F)(F)F)cc2)c2ccccc2CCc2ccccc21)C(=O)NCCO`: the concentration for 50% growth inhibition (GI50) in the assay on HCT-116 amounted to 60 nM. Besides, the 50% inhibitory concentration (IC50) in assay [1] turned out to be 80 nM.
